Reference: patent US20080269161A1, “Compositions and Methods Relating to Mitochondrial Hyperpolarization in Neurological Disease” (priority 2005, published 2008)
“Also recorded” adds a separate entry of the source. Counter-ions that a name gives are not always drawn.

What was measured:
[1] = test system: HIV-1 isolates resistant to other protease inhibitors; conditions: read-out: ED50 dose for inhibiting viral replication; cited from earlier work
[2] = test system: Tat-stimulated TNF release in monocytes; assay: Tat-stimulated TNF release by primary monocytes (ELISA); assay type: cell-based, human; conditions: Tat 100 nM, 4 h; CGS21680 1 μM; ATL313, ATL455 1-4 nM; hydrochloride
Procedure: Human primary monocytes were treated with Tat (100 nM) in the presence or absence of the A2AR agonist, CGS21680 (CGS; 1 μM) or the A2AR antagonist, ZM241385 (100 nM) for 4 h. TNF levels in culture supernatants were then quantitated by ELISA. Data represent mean+SEM of three replicates, from a single representative experiment
(§1) Primary monocytes were seeded in separate triplicate wells, and exposed independently to LPS (100 ng/ml), vehicle (NT) or Tat (100 nM) in the presence or absence of the A2AR agonist, CGS21680 (1 μM). After 4 h, cells were harvested. (A) TNF was measured in cell supernatants by ELISA Mean data values (±S.D.) are shown for the triplicate wells. (B) The corresponding cells from each well in panel A were lysed and subjected to qRTPCR analysis. Each cDNA sample was analyzed in quadruplicate. Assay results are presented as fold induction of gene expression, compared to untreated cells, after normalization to levels of GAPDH. Data represent mean±SD for each individual experimental replicate/well.
Human primary monocytes were treated with Tat (100 nM) in the presence or absence of the A2AR agonist, ATL313 (1-4 nM) or the A2AR antagonist, ATL455 (1-4 nM) for 4 h. TNF levels in culture supernatants were then quantitated by ELISA. […]
Human primary monocytes were treated with Tat (100 nM) in the presence or absence of the A2AR agonist, ATL313 (at the indicated doses) for 4 h. TNF levels in culture supernatants were then quantitated by ELISA. […]
(6) Primary monocytes. […] Results are compared for both populations, as well as purity (as assessed by immunophenotyping using CD14, CD68 and MHC class II).
The effect of an A2AR agonist on TNF release by primary human monocytes was also determined. Monocytes were stimulated with HIV-1 Tat, in the presence or absence of the A2AR agonist CGS21680 or the A2AR antagonist ZM251385 and TNF release was then measured in cell culture supernatants using an ELISA assay.
Quantitative real-time PCR analysis was used to measure TNF message levels in Tat-treated monocytes. […]

[3] = test system: iNOS expression in human primary monocytes; assay: Tat-induced iNOS expression in primary monocytes; assay type: cell-based; conditions: co-treatment with Tat
Procedure: (§2) The effect of adenosine receptor activation on Tat-induced upregulation of iNOS expression and NO release was then determined. […] In contrast, incubation of cells with 1 μM R-PIA (an adenosine A1 receptor agonist) had no effect on Tat-induced iNOS expression or NO release (FIG. 11), implicating the A2A and A3 receptor subtypes in this anti-inflammatory effect. ZM241385 (an A2AR antagonist) or MRS 1220 (an A3R antagonist) could prevent the anti-inflammatory effects of CGS21680 or IB-MECA, respectively.

[4] = test system: NO release by human primary monocytes; assay: Tat-induced nitric oxide release by primary monocytes (Griess reaction); assay type: cell-based; conditions: co-treatment with Tat, 8 h; R-PIA 1 μM
Procedure: Human primary monocytes were treated with Tat in the presence or absence of the indicated adenosine receptor agonists for 8 h, and nitric oxide levels in the culture medium of the cells were then quantitated using the Griess reaction (Active Motif). Data represent mean+SEM of three experiments.
as §2

[5] = test system: TNF and IL1 mRNA in primary human monocytes; assay: qRTPCR of inflammatory gene expression in Tat-exposed monocytes; assay type: cell-based; conditions: Tat 100 nM, CGS21680 1 μM, 4 h
Procedure: as §1
Quantitative real-time PCR analysis was used to measure TNF message levels in Tat-treated monocytes. Primary human monocytes were prepared using CD14^+ immunomagnetic selection, and then exposed to LPS or to HIV-1 Tat for 4 hours, in the presence or absence of the A2AR agonist CGS21680. Culture supernatants were tested for TNF levels by ELISA assay (FIG. 13A), and RNA was extracted from cell pellets for quantitative reverse-transcription PCR (qRTPCR) analysis (FIG. 13B).

[6] = test system: rat cerebellar granule neurons (CGNs); assay: Tat-induced apoptosis of cerebellar granule neurons (TUNEL); assay type: cell-based; conditions: Tat 500 nM, 48 h
Procedure: CGNs were exposed to HIV-1 Tat (Tat, 500 nM), or vehicle alone (NT), in the presence or absence of the A2A antagonist, ZM241385. After 48 h, cultures were analyzed for the percentage of apoptotic cells using the TUNEL assay. Data represent mean±SEM for one experiment that was performed in triplicate; data are representative of two independent experiments.
CGNs were exposed to HIV-1 Tat (Tat, 500 nM), or vehicle alone (No Tat), in the presence or absence of the A2AR antagonists, ATL455 and ZM241385, or the A2AR agonists ATL313 and CGS21680. After 48 h, cultures were analyzed for the percentage of apoptotic cells using the TUNEL assay. Data represent mean±SEM for one experiment that was performed in triplicate; data are representative of two independent experiments.
(1) Primary rat cerebellar granule neurons (CGNs). CGNs represent a highly homogenous population of primary neurons which are susceptible to Tat and PAF-mediated cell killing and have been used in many of previous studies. CGN cells are isolated according to published procedures [Maggirwar, S. B., et al. 1999. J Neurochem 73:578-86] [Tong, N., et al. 2001. Eur J Neurosci 13:1913-22].
78(4): p. […] 22(6): p. 1102-6].
Primary rat cerebellar granule neurons (CGNs) were exposed to a neurotoxic concentration of HIV-1 Tat, in the presence or absence of an A2AR antagonist (ZM241385). […] It is important to note that CGNs express adenosine A2A receptors [Vacas, J., et al. 2003. Brain Res 992:272-280].
Primary cultures of rat cerebellar granule neurons (CGNs) were exposed to HIV-Tat ([…]) alone or together with increasing doses of the A2AR antagonist ATL-455 or A2A agonists ATL313 or CGS21680. Cells are treated with the test compounds for defined time intervals of up to 48 hours (1, 4, 8, 24, and 48 hours).

rat cortical neurons = assay type: cell-based
Procedure: Measuring production of intracellular ROS: Generation of ROS in response to Tat and PAF is assessed with the oxidizable dye indicator 5-(and-6)-chloromethyl-2′, 7′-dichlorodihydrofluorescein diacetate, acetyl ester (CM—H2DCFDA, abbreviated as “DCF”) (Molecular Probes, Eugene, Oreg.). Upon entering the cell by passive diffusion, the acetate groups are cleaved by intracellular esterases, and the thiol-reactive chloromethyl group binds to intracellular thiols, rendering the CM—H2DCF product trapped within the cell. […] [manufacturer's data] leaves the final fluorescent product CM-DCF, which is then imaged (excitation: 485, emission: 538) and quantitated in the same fashion as TMRM (above) as an indicator of relative levels of ROS in the culture.

rodent cortical cultures = assay: FM1-43 vesicular uptake in cortical neuronal cultures; assay type: cell-based, rat; conditions: all doses of Tat
Procedure: (C) Moreover, activity dependent FM1-43 release by KC1 depolarization preferentially reduces the punctate vesicular labeling versus background signal. (D) In ≦14 and ≧14 day old primary neurons, 2.5 μg/ml Tat and 4.25 μg/ml Tat induces an increase in spontaneous activity dependent vesicular uptake, an effect that is both dose and culture age dependent.
Cortical neuronal cultures were treated with Tat or cPAF for varying periods of time as an in vitro model of pre-synaptic nerve terminal function, using the lipophilic, fluorescent styryl dye N-(3-triethylammoniumpropyl)-4-(4-(dibutylamino)styryl) pyridinium dibromide (FM1-43), which binds to synaptic vesicle membranes and is taken up into nerve terminals during normal activity (i.e., synaptic vesicle recycling). Fluorescent signal can be quantified to number of neurons, and after chemical depolarization with high concentrations of KC1, fluorescent signal is abolished, giving an index of nerve terminal activity in real-time. […] 68(7): p. 4628-35]. […]
FM1-43 uptake assay: Total spontaneous activity dependent vesicular uptake was assessed using the lipophilic styryl dye N-(3-triethylammoniumpropyl)-4-(4-(dibutylamino)styryl) pyridinium dibromide (FM1-43). […] Upon subsequent exocytosis, the vesicle fuses with the membrane, releasing its contents, and the FM1-43 dissociates back into the extracellular solution and loses its fluorescence. […]

For `COC(=O)N[C@H](C(=O)N[C@@H](Cc1ccccc1)[C@@H](O)CN(Cc1ccc(-c2ccccn2)cc1)NC(=O)[C@@H](NC(=O)OC)C(C)(C)C)C(C)(C)C` [Atazanvir, Atazanavir], the EC50 [1] is listed as 2 to 8 nM.

With `CCNC(=O)[C@H]1O[C@@H](n2cnc3c(N)nc(NCCc4ccc(CCC(=O)O)cc4)nc32)[C@H](O)[C@@H]1O` [CGS21680, 4-[2-[[6-Amino-9-(N-ethyl-b-D-ribofuranuronamidosyl)-9H-purin-2yl]amino]ethyl]benzenepropanoic acid hydrochloride] the “effect on Tat-induced monocyte activation (TNF release)” value [2] was “abrogated; also recorded: strongly suppressed; also recorded: opposed”, the “inhibition of Tat-induced iNOS expression” value [3] was “roughly 50%” and the “effect on Tat-induced NO secretion” value [4] was “complete abrogation”. For the same compound, the “effect on IL1 mRNA levels” value [5] was “little effect”, the “effect on TNF transcription” value [5] was “strongly suppressed” and the “effect on Tat-induced neuronal apoptosis” value [6] was “did not result in an increase in cell death”.

For `OO` [H202, hydrogen peroxide], the “increase in ROS production” value (rat cortical neurons) was 90%.

For `C[C@H](CCC(=O)NCCS(=O)(=O)O)[C@H]1CC[C@H]2[C@@H]3[C@@H](O)C[C@@H]4C[C@H](O)CC[C@]4(C)[C@H]3CC[C@]12C` [TUDCA, tauroursodeoxycholic acid], the “effect on Tat-induced increase in FM1-43 uptake” value (rodent cortical cultures) was “completely blocked; also recorded: completely eliminated”.
